Laboratory results reported in PubChem BioAssay AID2060490 (Molecular Pharmacology Branch, DTP, NCI, 2025).

Test system: 885512-296-R-J2-PDC complex spheroid viability
Test: Anticancer human tumor 885512-296-R-J2-PDC patient-derived breast carcinoma cell line growth inhibition [GQUAD]
Conditions: for IC50: curve of first compound; for viability, T/C: stronger effect = lower value; active = viability on the fitted dose curve at most 10% of control; inactive = the rest
Procedure, shortened: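 Tumor cells were grown as complex spheroids with HUVEC endothelial cells and mesenchymal stem cells as stroma. G-quadruplex stabilizers were combined with targeted agents over half-log dilutions from near the clinical Cmax, or from 10 microM.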

[1] = second compound 0.0316 µM, first compound 0.0316 µM
[2] = second compound 0.0316 µM, first compound 0.1 µM
[3] = second compound 0.0316 µM, first compound 0.316 µM
[4] = second compound 0.0316 µM, first compound 1 µM
[5] = second compound 0.0316 µM, first compound 3.16 µM
[6] = second compound 0.0316 µM, first compound 10 µM
[7] = second compound 0.1 µM, first compound 0.0316 µM
[8] = second compound 0.1 µM, first compound 0.1 µM
[9] = second compound 0.1 µM, first compound 0.316 µM
[10] = second compound 0.1 µM, first compound 1 µM
[11] = second compound 0.1 µM, first compound 3.16 µM
[12] = second compound 0.1 µM, first compound 10 µM
[13] = second compound 0.316 µM, first compound 0.0316 µM
[14] = second compound 0.316 µM, first compound 0.1 µM
[15] = second compound 0.316 µM, first compound 0.316 µM
[16] = second compound 0.316 µM, first compound 1 µM
[17] = second compound 0.316 µM, first compound 3.16 µM
[18] = second compound 0.316 µM, first compound 10 µM
[19] = second compound 1 µM, first compound 0.0316 µM
[20] = second compound 1 µM, first compound 0.1 µM
[21] = second compound 1 µM, first compound 0.316 µM
[22] = second compound 1 µM, first compound 1 µM
[23] = second compound 1 µM, first compound 3.16 µM
[24] = second compound 1 µM, first compound 10 µM
[25] = second compound 3.16 µM, first compound 0.0316 µM
[26] = second compound 3.16 µM, first compound 0.1 µM
[27] = second compound 3.16 µM, first compound 0.316 µM
[28] = second compound 3.16 µM, first compound 1 µM
[29] = second compound 3.16 µM, first compound 3.16 µM
[30] = second compound 3.16 µM, first compound 10 µM
[31] = second compound 10 µM, first compound 0.0316 µM
[32] = second compound 10 µM, first compound 0.1 µM
[33] = second compound 10 µM, first compound 0.316 µM
[34] = second compound 10 µM, first compound 1 µM
[35] = second compound 10 µM, first compound 3.16 µM
[36] = second compound 10 µM, first compound 10 µM
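Note: spheroids exposed to the compounds for one week.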
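Throughout, for viability, T/C: percent of tumor spheroid viability relative to DMSO vehicle control wells.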

CC1COCCN1c1cc(C2(S(C)(=N)=O)CC2)nc(-c2ccnc3[nH]ccc23)n1 (stereo not given) + Cc1cnc(CNC(=O)c2c(=O)c3ccc(N4CCCN(C)CC4)nc3n3c2sc2ccccc23)cn1
0.0928 µM: IC50 (second compound 0.1 µM)
0.367 µM: IC50 (second compound 0.0316 µM)
inactive: viability, T/C [1] 73.9% | viability, T/C [2] 66.2% | viability, T/C [3] 55.8% | viability, T/C [4] 15.9% | viability, T/C [7] 63.4% | viability, T/C [8] 47.5% | viability, T/C [9] 31.3% | viability, T/C [10] 11.4% | viability, T/C [13] 25.2% | viability, T/C [14] 19.2% | viability, T/C [15] 19.4% | viability, T/C [16] 8.96% | viability, T/C [19] 19.8% | viability, T/C [20] 20.2% | viability, T/C [21] 17.1% | viability, T/C [22] 8.13% | viability, T/C [25] 25.1% | viability, T/C [26] 18.4% | viability, T/C [27] 17%
< 0.0316 µM: IC50 (second compound 0.316 µM) | IC50 (second compound 1 µM) | IC50 (second compound 3.16 µM) | IC50 (second compound 10 µM)
active: viability, T/C [5] 4.2% | viability, T/C [6] 3.7% | viability, T/C [11] 5.24% | viability, T/C [12] 3.6% | viability, T/C [17] 4.98% | viability, T/C [18] 4.66% | viability, T/C [23] 4.36% | viability, T/C [24] 4.77% | viability, T/C [28] 4.84% | viability, T/C [29] 3.04% | viability, T/C [30] 3.44% | viability, T/C [31] 0.12% | viability, T/C [32] 0.18% | viability, T/C [33] 0.22% | viability, T/C [34] 0.19% | viability, T/C [35] 0.24% | viability, T/C [36] 0.23%

Nc1ccn(C2OC(CO)C(O)C2(F)F)c(=O)n1 (stereo not given) + Cc1cnc(CNC(=O)c2c(=O)c3ccc(N4CCCN(C)CC4)nc3n3c2sc2ccccc23)cn1
active: viability, T/C [2] 3.66% | viability, T/C [3] 4.41% | viability, T/C [4] 3.92% | viability, T/C [5] 3.56% | viability, T/C [6] 4.33% | viability, T/C [7] 8.53% | viability, T/C [8] 4.24% | viability, T/C [9] 3.88% | viability, T/C [10] 5.21% | viability, T/C [11] 4.05% | viability, T/C [12] 3.9% | viability, T/C [13] 8.35% | viability, T/C [14] 8.14% | viability, T/C [15] 5.18% | viability, T/C [16] 2.76% | viability, T/C [17] 5.29% | viability, T/C [18] 4.05% | viability, T/C [19] 9.41% | viability, T/C [20] 7.02% | viability, T/C [21] 3.55% | viability, T/C [22] 3.31% | viability, T/C [23] 4.27% | viability, T/C [24] 3.59% | viability, T/C [25] 4.08% | viability, T/C [26] 0.41% | viability, T/C [27] 0.15% | viability, T/C [28] 0.1% | viability, T/C [29] 0.12% | viability, T/C [30] 0.14% | viability, T/C [31] 0.09% | viability, T/C [32] 0.15% | viability, T/C [33] 0.14% | viability, T/C [34] 0.11% | viability, T/C [35] 0.15% | viability, T/C [36] 0.16%
inactive: viability, T/C [1] 11.4%
< 0.0316 µM: IC50 (second compound 0.0316 µM) | IC50 (second compound 0.1 µM) | IC50 (second compound 0.316 µM) | IC50 (second compound 1 µM) | IC50 (second compound 3.16 µM) | IC50 (second compound 10 µM)

C=CCn1c(=O)c2cnc(Nc3ccc(N4CCN(C)CC4)cc3)nc2n1-c1cccc(C(C)(C)O)n1 + Cc1[nH]c2ccc(F)cc2c1-c1nc2c3cccnc3c3ncccc3c2[nH]1
1.46 µM: IC50 (second compound 1 µM)
active: viability, T/C [24] 8.34% | viability, T/C [25] 6.03% | viability, T/C [26] 7.36% | viability, T/C [27] 2.92% | viability, T/C [28] 6.25% | viability, T/C [29] 8.08% | viability, T/C [30] 1.1% | viability, T/C [31] 1.82% | viability, T/C [32] 2.1% | viability, T/C [33] 2.49% | viability, T/C [34] 1.79% | viability, T/C [35] 2.05% | viability, T/C [36] 1.03%
< 0.0316 µM: IC50 (second compound 3.16 µM) | IC50 (second compound 10 µM)
6.68 µM: IC50 (second compound 0.1 µM)
6.58 µM: IC50 (second compound 0.0316 µM)
6.26 µM: IC50 (second compound 0.316 µM)
inactive: viability, T/C [1] 128% | viability, T/C [2] 96.4% | viability, T/C [3] 96.5% | viability, T/C [4] 125% | viability, T/C [5] 83.7% | viability, T/C [6] 30.8% | viability, T/C [7] 108% | viability, T/C [8] 102% | viability, T/C [9] 97.2% | viability, T/C [10] 104% | viability, T/C [11] 88% | viability, T/C [12] 29.2% | viability, T/C [13] 88% | viability, T/C [14] 98% | viability, T/C [15] 96.1% | viability, T/C [16] 95.6% | viability, T/C [17] 89.2% | viability, T/C [18] 23% | viability, T/C [19] 74.3% | viability, T/C [20] 68.4% | viability, T/C [21] 61.6% | viability, T/C [22] 59.1% | viability, T/C [23] 37.4%

O=C(c1cc(Cc2n[nH]c(=O)c3ccccc23)ccc1F)N1CCN(C(=O)C2CC2)CC1 + CN(C)c1ccc(Nc2c3ccc(NC(=O)CCN4CCCC4)cc3nc3cc(NC(=O)CCN4CCCC4)ccc23)cc1
7.62 µM: IC50 (second compound 0.0316 µM)
5.34 µM: IC50 (second compound 3.16 µM)
7.33 µM: IC50 (second compound 0.316 µM)
inactive: viability, T/C [1] 105% | viability, T/C [2] 103% | viability, T/C [3] 132% | viability, T/C [4] 139% | viability, T/C [5] 117% | viability, T/C [6] 29.2% | viability, T/C [7] 102% | viability, T/C [8] 94.9% | viability, T/C [9] 119% | viability, T/C [10] 145% | viability, T/C [11] 120% | viability, T/C [12] 33% | viability, T/C [13] 93.7% | viability, T/C [14] 110% | viability, T/C [15] 118% | viability, T/C [16] 131% | viability, T/C [17] 123% | viability, T/C [18] 25.7% | viability, T/C [19] 85.2% | viability, T/C [20] 102% | viability, T/C [21] 116% | viability, T/C [22] 152% | viability, T/C [23] 105% | viability, T/C [24] 29.1% | viability, T/C [25] 95% | viability, T/C [26] 107% | viability, T/C [27] 125% | viability, T/C [28] 107% | viability, T/C [29] 67.8% | viability, T/C [30] 28.7% | viability, T/C [31] 20.7% | viability, T/C [32] 23.3% | viability, T/C [33] 20.1% | viability, T/C [34] 19.2% | viability, T/C [35] 20.8% | viability, T/C [36] 15.8%
7.31 µM: IC50 (second compound 1 µM)
7.9 µM: IC50 (second compound 0.1 µM)
< 0.0316 µM: IC50 (second compound 10 µM)

C=CC(=O)N1CCN(c2nc(=O)n(-c3c(C)ccnc3C(C)C)c3nc(-c4c(O)cccc4F)c(F)cc23)C(C)C1 (stereo not given) + CN(C)c1ccc(Nc2c3ccc(NC(=O)CCN4CCCC4)cc3nc3cc(NC(=O)CCN4CCCC4)ccc23)cc1
< 0.0316 µM: IC50 (second compound 10 µM)
inactive: viability, T/C [1] 104% | viability, T/C [2] 94.9% | viability, T/C [3] 108% | viability, T/C [4] 103% | viability, T/C [5] 102% | viability, T/C [6] 105% | viability, T/C [7] 111% | viability, T/C [8] 99.5% | viability, T/C [9] 101% | viability, T/C [10] 108% | viability, T/C [11] 114% | viability, T/C [12] 100% | viability, T/C [13] 107% | viability, T/C [14] 97.9% | viability, T/C [15] 103% | viability, T/C [16] 119% | viability, T/C [17] 99.9% | viability, T/C [18] 105% | viability, T/C [19] 101% | viability, T/C [20] 88.8% | viability, T/C [21] 101% | viability, T/C [22] 117% | viability, T/C [23] 102% | viability, T/C [24] 108% | viability, T/C [25] 106% | viability, T/C [26] 115% | viability, T/C [27] 120% | viability, T/C [28] 129% | viability, T/C [29] 103% | viability, T/C [30] 77.7% | viability, T/C [31] 27% | viability, T/C [32] 21.7% | viability, T/C [33] 21.9% | viability, T/C [34] 18.9% | viability, T/C [35] 20.6% | viability, T/C [36] 10.3%
> 10 µM: IC50 (second compound 0.0316 µM) | IC50 (second compound 0.1 µM) | IC50 (second compound 0.316 µM) | IC50 (second compound 1 µM) | IC50 (second compound 3.16 µM)
